Experiments:
[1] = tested on: adult patients with Type 1 Diabetes Mellitus who have inadequate glycemic control with insulin therapy; assay: inTandem 1 and inTandem 2 pooled double-blind placebo-controlled clinical studies, efficacy; type: in vivo, human; details: for HbA1c change from Baseline, Week 24 Treatment Comparison, LS Mean / HbA1c change from Baseline, Week 52 Treatment Comparison, LS Mean: optimized insulin
[2] = tested on: adult patients diagnosed with T1D who have inadequate glycemic control with insulin therapy; assay: inTandem 3 phase 3 randomized double-blind placebo-controlled study; type: in vivo, human; details: for A1C (%) LS Mean Difference (SE) / Body weight (kg) LS Mean Difference (SE) / Fasting plasma glucose (mg/dL) LS Mean Difference (SE) / SBP (mmHg) LS Mean Difference (SE): 400 mg vs placebo; for A1C (%) LS Mean Difference (SE) / Body weight (kg) LS Mean Difference (SE) / Fasting plasma glucose (mg/dL) LS Mean Difference (SE) / SBP (mmHg) LS Mean Difference (SE) / A1C (%) LS Mean change (SE) / Body weight (kg) LS Mean change (SE) / Fasting plasma glucose (mg/dL) LS Mean change (SE) / SBP (mmHg) LS Mean change (SE): InTandem3; for A1C (%) LS Mean change (SE) / Body weight (kg) LS Mean change (SE) / Fasting plasma glucose (mg/dL) LS Mean change (SE) / SBP (mmHg) LS Mean change (SE): 400 mg
[3] = tested on: patients with type 1 diabetes; details: phase II trials; cited from earlier work
[4] = 400 mg, Baseline BMI ≥27 kg/m^2, Week 24
[5] = 400 mg, Baseline BMI ≥27 kg/m^2, Week 52
[6] = Baseline BMI <27 kg/m^2, Week 24
[7] = Baseline BMI ≥27 kg/m^2, Week 24
[8] = Sotagliflozin 400 mg vs placebo, Week 24
[9] = Sotagliflozin 400 mg, Week 16, SBP ≥130 mm Hg at baseline
[10] = Sotagliflozin 400 mg, Week 24, insulin pump users
[11] = Sotagliflozin 400 mg, Week 24, nonpump users

Compound: CCOc1ccc(Cc2cc([C@@H]3O[C@H](SC)[C@@H](O)[C@H](O)[C@H]3O)ccc2Cl)cc1 [sotagliflozin, (2S,3R,4R,5S,6R)-2-(4-chloro-3-(4-ethoxybenzyl)phenyl)-6-(methylthio)tetrahydro-2H-pyran-3,4,5-triol]
- SBP (mmHg) LS Mean change (SE) ([1]; 400 mg, Baseline BMI <27 kg/m^2, Week 52): −1.0 (0.81) mmHg
- 2-hour postprandial plasma glucose (mg/dL) LS Mean change (SE) [1, 4]: −39.5 (10.72) mg/dL
- A1C (%) LS Mean change (SE) [1, 4]: −0.50 (0.034) %
- Body weight (kg) LS Mean change (SE) [1, 4]: −2.98 (0.193) kg
- DDS2 (score) LS Mean change (SE) [1, 4]: −0.5 (0.10) score
- DTSQ (score) LS Mean change (SE) [1, 4]: 2.2 (0.26) score
- Fasting plasma glucose (mg/dL) LS Mean change (SE) [1, 4]: −18.6 (3.28) mg/dL
- SBP (mmHg) LS Mean change (SE) [1, 4]: −4.0 (0.64) mmHg
- Time in range (%) LS Mean change (SE) [1, 4]: 13.133 (2.0244) %
- A1C (%) LS Mean change (SE) [1, 5]: −0.38 (0.040) %
- Body weight (kg) LS Mean change (SE) [1, 5]: −3.61 (0.249) kg
- SBP (mmHg) LS Mean change (SE) [1, 5]: −3.2 (0.65) mmHg
- Weight, Percent Change from Baseline at Week 24, Treatment Comparison vs. PBO LS Mean (SE) ([1]; SOTA 200 mg vs PBO, Week 24): −2.17 (0.188), p < 0.001%
- HbA1c change from Baseline, Week 24 Treatment Comparison, LS Mean ([1]; SOTA 200 mg vs PBO, Week 24): −0.36%
- No Weight Gain at Week 52, HbA1c <7.0%: Absolute difference in % (SOTA vs. PBO) ([1]; SOTA 200 mg vs PBO, Week 52): 12.6%
- No Weight Gain at Week 52, reduction in HbA1c ≥0.5%: Absolute difference in % (SOTA vs. PBO) ([1]; SOTA 200 mg vs PBO, Week 52): 14.9%
- Weight, Percent Change from Baseline at Week 52, Treatment Comparison vs. PBO LS Mean (SE) ([1]; SOTA 200 mg vs PBO, Week 52): −3.21 (0.291), p < 0.001%
- HbA1c change from Baseline, Week 52 Treatment Comparison, LS Mean ([1]; SOTA 200 mg vs PBO, Week 52): −0.23%
- Weight, Percent Change (%) from Baseline at Week 24, LS Mean (SE) ([1]; SOTA 200 mg, Week 24): −1.70 (0.137), p < 0.001%
- No Weight Gain at Week 52: Percentage HbA1c <7.0% ([1]; SOTA 200 mg, Week 52): 21.8%
- No Weight Gain at Week 52: Percentage with absolute reduction in HbA1c ≥0.5% ([1]; SOTA 200 mg, Week 52): 23.7%
- Weight, Percent Change (%) from Baseline at Week 52, LS Mean (SE) ([1]; SOTA 200 mg, Week 52): −2.31 (0.208), p < 0.001%
- Weight, Percent Change from Baseline at Week 24, Treatment Comparison vs. PBO LS Mean (SE) ([1]; SOTA 400 mg vs PBO, Week 24): −3.02 (0.188), p < 0.001%
- HbA1c change from Baseline, Week 24 Treatment Comparison, LS Mean ([1]; SOTA 400 mg vs PBO, Week 24): −0.38%
- No Weight Gain at Week 52, HbA1c <7.0%: Absolute difference in % (SOTA vs. PBO) ([1]; SOTA 400 mg vs PBO, Week 52): 17.0%
- No Weight Gain at Week 52, reduction in HbA1c ≥0.5%: Absolute difference in % (SOTA vs. PBO) ([1]; SOTA 400 mg vs PBO, Week 52): 20.0%
- Weight, Percent Change from Baseline at Week 52, Treatment Comparison vs. PBO LS Mean (SE) ([1]; SOTA 400 mg vs PBO, Week 52): −4.24 (0.291), p < 0.001%
- HbA1c change from Baseline, Week 52 Treatment Comparison, LS Mean ([1]; SOTA 400 mg vs PBO, Week 52): −0.32%
- Weight, Percent Change (%) from Baseline at Week 24, LS Mean (SE) ([1]; SOTA 400 mg, Week 24): −2.55 (0.137), p < 0.001%
- No Weight Gain at Week 52: Percentage HbA1c <7.0% ([1]; SOTA 400 mg, Week 52): 26.1%
- No Weight Gain at Week 52: Percentage with absolute reduction in HbA1c ≥0.5% ([1]; SOTA 400 mg, Week 52): 28.8%
- Weight, Percent Change (%) from Baseline at Week 52, LS Mean (SE) ([1]; SOTA 400 mg, Week 52): −3.33 (0.209), p < 0.001%
- efficacy of sotagliflozin versus placebo by BMI subgroup ([1]; Week 24, BMI ≥27 kg/m^2 subgroups, A1C, body weight, time in range, DTSQ, DDS2): more pronounced
- A1C levels compared to placebo (primary endpoint) ([1]; both doses, after core treatment period and long-term extension period): statistically significant lower A1C levels
- primary endpoint (A1C <7.0% at Week 24, no severe hypoglycemia, no DKA) ([2]; 400 mg versus placebo): reached its primary endpoint
- A1C (%) LS Mean Difference (SE) [2, 6]: −0.37 (0.068) %
- Body weight (kg) LS Mean Difference (SE) [2, 6]: −2.47 (0.213) kg
- Fasting plasma glucose (mg/dL) LS Mean Difference (SE) [2, 6]: −21.7 (5.78) mg/dL
- SBP (mmHg) LS Mean Difference (SE) [2, 6]: −3.4 (0.92) mmHg
- A1C (%) LS Mean Difference (SE) [2, 7]: −0.54 (0.051) %
- Body weight (kg) LS Mean Difference (SE) [2, 7]: −3.41 (0.247) kg
- Fasting plasma glucose (mg/dL) LS Mean Difference (SE) [2, 7]: −24.3 (4.69) mg/dL
- SBP (mmHg) LS Mean Difference (SE) [2, 7]: −3.2 (0.79) mmHg
- A1C (%) LS Mean change (SE) [2, 6]: −0.72 (0.051) %
- Body weight (kg) LS Mean change (SE) [2, 6]: −1.71 (0.157) kg
- Fasting plasma glucose (mg/dL) LS Mean change (SE) [2, 6]: −10.4 (4.30) mg/dL
- SBP (mmHg) LS Mean change (SE) [2, 6]: −1.7 (0.69) mmHg
- A1C (%) LS Mean change (SE) [2, 7]: −0.86 (0.065) %
- Body weight (kg) LS Mean change (SE) [2, 7]: −2.80 (0.277) kg
- Fasting plasma glucose (mg/dL) LS Mean change (SE) [2, 7]: −23.5 (6.34) mg/dL
- SBP (mmHg) LS Mean change (SE) [2, 7]: −3.8 (1.19) mmHg
- efficacy compared to placebo on A1C and body weight in the overweight and obese subgroup ([2]; BMI ≥27 kg/m^2 vs <27 kg/m^2, InTandem 3): more favorable effect
- Primary endpoint: Patients achieving glycated hemoglobin <7% without DKA and no severe hypoglycemia, All patients, no. ([2]; Sotagliflozin 400 mg (n = 699), Week 24): 200
- Systolic blood pressure in patients with SBP ≥130 mm Hg at baseline, Week 16 LS mean change, LS mean difference from placebo ([2]; Sotagliflozin 400 mg vs placebo, Week 16, SBP ≥130 mm Hg at baseline): −3.5 ± 1.11 mm Hg
- Daily bolus insulin dose, Week 24 LS mean change from baseline ± SE, LS mean difference from placebo [2, 8]: −2.84 ± 0.61 IU/day
- Daily bolus insulin dose, Week 24 LS mean percent change from baseline ± SE, LS mean difference from placebo [2, 8]: −12.32 ± 2.98%
- Glycated hemoglobin, Week 24 LS mean change from baseline ± SE, LS mean difference from placebo [2, 8]: −0.46 ± 0.04%
- Primary endpoint, All patients, LS mean difference from placebo (95% CI) [2, 8]: 13.4% (8.97 to 17.81)
- Weight, Week 24 LS mean change from baseline ± SE, LS mean difference from placebo [2, 8]: -2.98 ± 0.166 kg
- Primary endpoint, Insulin pump users, LS mean difference from placebo (95% CI) ([2]; Sotagliflozin 400 mg vs placebo, Week 24, insulin pump users): 15.9% (8.58 to 23.38)
- Primary endpoint, Nonpump users, LS mean difference from placebo (95% CI) ([2]; Sotagliflozin 400 mg vs placebo, Week 24, nonpump users): 11.8% (6.14 to 17.38)
- Systolic blood pressure in patients with SBP ≥130 mm Hg at baseline, Week 16 LS mean change from baseline ± SE [2, 9]: −9.2 ± 0.92 mm Hg
- Systolic blood pressure in patients with SBP ≥130 mm Hg at baseline, Week 16 mean ± SD [2, 9]: 131.8 ± 12.02 mm Hg
- Daily bolus insulin dose, Week 24 LS mean change from baseline ± SE ([2]; Sotagliflozin 400 mg, Week 24): −3.93 ± 0.47 IU/day
- Daily bolus insulin dose, Week 24 LS mean percent change from baseline ± SE ([2]; Sotagliflozin 400 mg, Week 24): −5.71 ± 2.29%
- Daily bolus insulin dose, Week 24 mean ± SD ([2]; Sotagliflozin 400 mg, Week 24): 23.90 ± 15.76 IU/day
- Glycated hemoglobin, Week 24 LS mean change from baseline ± SE ([2]; Sotagliflozin 400 mg, Week 24): −0.79 ± 0.03%
- Glycated hemoglobin, Week 24 mean ± SD ([2]; Sotagliflozin 400 mg, Week 24): 7.41 ± 0.95%
- Primary endpoint: Patients achieving glycated hemoglobin <7% without DKA and no severe hypoglycemia, All patients, (%) ([2]; Sotagliflozin 400 mg, Week 24): 28.6%
- Weight, Week 24 LS mean change from baseline ± SE ([2]; Sotagliflozin 400 mg, Week 24): -2.21 ± 0.12 kg
- Weight, Week 24 mean ± SD ([2]; Sotagliflozin 400 mg, Week 24): 80.19 ± 17.02 kg
- Primary endpoint, Insulin pump users, (%) [2, 10]: 32.0%
- Primary endpoint, Insulin pump users, no. [2, 10]: 88
- Primary endpoint, Nonpump users, (%) [2, 11]: 26.4%
- Primary endpoint, Nonpump users, no. [2, 11]: 112
- glycemic control (reduction in A1C) [3]: significantly improve glycemic control

From US20240226125A1, “USE OF SOTAGLIFLOZIN FOR THE TREATMENT OF PATIENTS WITH TYPE 1 DIABETES MELLITUS” (priority 2019, published 2024)
